From ChEMBL document CHEMBL3301472, “MMV Malaria Box HIV and cytotoxicity screening”

Assays:
[1] = MMV: MTT Cytotoxicity Assay Day 7 pi of Assay #10 (NO washout), U87-CD4-CCR5 cells, % cell death @ 5mM compound; type: toxicity, cell-based; details: human, u87-cd4-ccr5, 5000 µM
[2] = MMV: MTT Cytotoxicity Assay Day 3 pi, U87-CD4-CXCR4 cells, % cell death @ 5mM compound; type: toxicity, cell-based; details: human, u87-cd4-cxcr4, 5000 µM
[3] = MMV: MTT Cytotoxicity Assay Day 7 pi of Assay #11 (NO washout), U87-CD4-CXCR4 cells, % cell death @ 5mM compound; type: toxicity, cell-based; details: human, u87-cd4-cxcr4, 5000 µM
[4] = test system: Human immunodeficiency virus 1; assay: MMV: HIV CXCR4-tropic env NL4-3 pseudovirus assay produces luciferase signal in lieu of replicating viral particles Day 3 pi, U87-CD4-CXCR4, % inhibition at 5 mM compound; type: functional; design: dose or concentration left out as unconfirmed; details: Human immunodeficiency virus 1, NL4-3, U87.CD4.CXCR4, 72 h
[5] = MMV: MTT Cytotoxicity Assay Day 7 pi of Assay #6 (compound washed out Day 1 pi), U87-CD4-CCR5 cells, % cell death @ 5mM compound; type: toxicity, cell-based; details: human, u87-cd4-ccr5, 5000 µM
[6] = MMV: MTT Cytotoxicity Assay Day 7 pi of Assay #7 (compound washed out Day 1 pi), U87-CD4-CXCR4 cells, % cell death @ 5mM compound; type: toxicity, cell-based; details: human, u87-cd4-cxcr4, 5000 µM
[7] = test system: Human immunodeficiency virus 1; assay: MMV: HIV JRFL CCR5-tropic replication-competent virus, NO washout, P24 ELISA Day 7 pi, U87-CD4-CCR5, % inhibition at 5 mM compound; type: functional; design: dose or concentration left out as unconfirmed; details: Human immunodeficiency virus 1, JR-FL, U87/CD4/CCR5, 168 h
[8] = MMV: MTT Cytotoxicity Assay Day 3 pi, U87-CD4-CCR5 cells, % cell death @ 5mM compound; type: toxicity, cell-based; details: human, u87-cd4-ccr5, 5000 µM

CCCc1c(C)nc2ccccc2c1O
% Cell Death [1]: 18
% Cell Death [2]: 8
% Cell Death [3]: 51
inhibition [4]: 9%
% Cell Death [5]: 22
% Cell Death [6]: 31
inhibition [7]: -2%
% Cell Death [8]: 5
